The source of these data is patent US20220362381A1, “REMOTELY TRIGGERED THERAPY” (Bambu Vault LLC, priority 2019, published 2022).

One data set in a line: Stabilization effect of surfactant on tetrakis aminium dye during emulsification (Epolight 1117 retention). In kind it is physicochemical. The settings on record: retention in particles after emulsification; surfactant in aqueous phase as in label. Here is the method: IR absorbing agent weight ratio=4.4:1). The organic phase (polymer and IR absorbing agents dissolved in dichloromethane) was injected directly into the aqueous phase (PVA solution with SDS surfactant) at the tip of the Turrax's roto-stator (i.e. directly into the flow being sheared by the roto-stator). The shear mixing at 8000 RPM was continued for 30 minutes. The resulting mixture was decanted into an open-mouth container and stirred magnetically for 16 hours. A solid suspension of particles containing IR absorbing agent was obtained. The solid suspension was centrifuged at 5000 RPM for 30 minutes and the particles were collected. The collected particles were washed with distilled water by resuspending the particles into distilled water and centrifuging as before to collect the particles. This washing process was repeated three times to remove residual PVA. The resulting MMA/BMA copolymer particles containing IR absorbing agent were air-dried. In the emulsion method of encapsulation, a surfactant is necessary to help keep the emulsion stable. While Aerosol® TR-70 (sodium bis(tridecyl) sulfosuccinate) could be used as an emulsifier to prepare polymer particles encapsulating Epolight™ 1117 tetrakis aminium dye, TR-70 only provided limited stabilization effects on the tetrakis aminium dye. […]
For `CCCCCCCCCCCCOS(=O)(=O)[O-].[Na+]` [Sodium dodecyl sulfate, sodium dodecyl sulfate], the “% Epolight ™ 1117 Retention” value was 85-90%. On the same count and under the same terms, with `CCCCCCCCCCCCCOC(=O)CC(C(=O)OCCCCCCCCCCCCC)S(=O)(=O)O.[Na]` (stereo not shown) [TR-70, sodium bis(tridecyl) sulfosuccinate] the figure was 50%.

Another data set in a line: Leaching testing of curcumin/Epolight IR 1117 B-805 particles with and without VTMS shell (FIG. 13). The settings on record: B-805 particles with VTMS shell vs. without shell. In kind it is physicochemical.
For `COc1cc(/C=C/C(=O)CC(=O)/C=C/c2ccc(O)c(OC)c2)ccc1O` [Curcumin, curcumin], the “reduction of leaching by the VTMS shell” value is given as 70%.

Assay in a further data set: not given
The following applies: likelihood of association with drug induced liver injury; cited from earlier work.
With `CCN1CCN(Cc2ccc(Nc3ncc(F)c(-c4cc(F)c5nc(C)n(C(C)C)c5c4)n3)nc2)CC1` [Abemaciclib], the “Likelihood Score” value is “E*”. On to `CCS(=O)(=O)N1CC(CC#N)(n2cc(-c3ncnc4[nH]ccc34)cn2)C1` [Baricitinib], for which the “Likelihood Score” value was “E*”. Consider `Cn1cnc2c(F)c(Nc3ccc(Br)cc3F)c(C(=O)NOCCO)cc21` [Binimetinib], for which the “Likelihood Score” value is recorded as “E*”. Turning to `COc1cc(Nc2c(C#N)cnc3cc(OCCCN4CCN(C)CC4)c(OC)cc23)c(Cl)cc1Cl` [Bosutinib], the “Likelihood Score” value was “E*”. As to `COc1cc(N2CCC(N3CCN(C)CC3)CC2)ccc1Nc1ncc(Cl)c(Nc2ccccc2P(C)(C)=O)n1` [Brigatinib], the “Likelihood Score” value is recorded as “E*”. In the case of `COc1cc2nccc(Oc3ccc(NC(=O)C4(C(=O)Nc5ccc(F)cc5)CC4)cc3)c2cc1OC` [Cabozantinib], the “Likelihood Score” value is reported as “E*”. Take `COc1c(OCCCN2CCOCC2)ccc2c1N=C(NC(=O)c1cnc(N)nc1)N1CCN=C21` [Copanlisib]: the “Likelihood Score” value was “E*”. In the case of `CC(C)(C)c1nc(-c2cccc(NS(=O)(=O)c3c(F)cccc3F)c2F)c(-c2ccnc(N)n2)s1` [Dabrafenib], the “Likelihood Score” value is on record as “E*”. For `COc1cc2ncnc(Nc3ccc(F)c(Cl)c3)c2cc1NC(=O)/C=C/CN1CCCCC1` [Dacomitinib], the “Likelihood Score” value is “E*”. As for `C[C@H](Nc1ncnc2[nH]cnc12)c1cc2cccc(Cl)c2c(=O)n1-c1ccccc1` [Duvelisib], the “Likelihood Score” value was “E*”. For `CC(C)(O)CNc1nc(Nc2ccnc(C(F)(F)F)c2)nc(-c2cccc(C(F)(F)F)n2)n1` [Enasidenib], the “Likelihood Score” value is reported as “E*”. As for `COC(=O)N[C@@H](C)CNc1nccc(-c2cn(C(C)C)nc2-c2cc(Cl)cc(NS(C)(=O)=O)c2F)n1` [Encorafenib], the “Likelihood Score” value is reported as “E*”. `COc1cc(Nc2ncc(F)c(Nc3ccc4c(n3)N(COP(=O)(O)O)C(=O)C(C)(C)O4)n2)cc(OC)c1OC` [Fostamatinib]: the “Likelihood Score” value was “E*”. Regarding `CCc1nc(C(N)=O)c(Nc2ccc(N3CCC(N4CCN(C)CC4)CC3)c(OC)c2)nc1NC1CCOCC1` [Gilteritinib], the “Likelihood Score” value is listed as “E*”. With `CN1CC[C@@H](NC(=O)Nc2ccc(C#N)cc2)C[C@@H]1c1nc2ccccc2[nH]1` [Glasdegib], the “Likelihood Score” value is on record as “E*”. Take `N#Cc1ccnc(N2C(=O)CC[C@H]2C(=O)N(c2cncc(F)c2)[C@H](C(=O)NC2CC(F)(F)C2)c2ccccc2Cl)c1` [Ivosidenib]: the “Likelihood Score” value is on record as “E*”. As for `CC(C)C[C@H](NC(=O)CNC(=O)c1cc(Cl)ccc1Cl)B(O)O` [Ixazomib], the “Likelihood Score” value is recorded as “E*”. Turning to `O=C(Nc1cnn2ccc(N3CCC[C@@H]3c3cc(F)ccc3F)nc12)N1CC[C@H](O)C1` [Larotrectinib], the “Likelihood Score” value was “E*”. As to `C[C@H]1Oc2cc(cnc2N)-c2c(nn(C)c2C#N)CN(C)C(=O)c2ccc(F)cc21` [Lorlatinib], the “Likelihood Score” value is recorded as “E*”.

For `CO[C@@H]1[C@H](N(C)C(=O)c2ccccc2)C[C@H]2O[C@]1(C)n1c3ccccc3c3c4c(c5c6ccccc6n2c5c31)C(=O)NC4` [Midostaurin], the “Likelihood Score” value is recorded as “E*”.

`CCOc1cc2ncc(C#N)c(Nc3ccc(OCc4ccccn4)c(Cl)c3)c2cc1NC(=O)/C=C/CN(C)C` [Neratinib]: the “Likelihood Score” value was “E*”. With `COC(=O)c1ccc2c(c1)NC(=O)/C2=C(\Nc1ccc(N(C)C(=O)CN2CCN(C)CC2)cc1)c1ccccc1` [Nintedanib], the “Likelihood Score” value is “E*”. Regarding `NC(=O)c1cccc2cn(-c3ccc([C@@H]4CCCNC4)cc3)nc12` [Niraparib], the “Likelihood Score” value is “E*”.

As to `CC(=O)c1c(C)c2cnc(Nc3ccc(N4CCNCC4)cn3)nc2n(C2CCCC2)c1=O` [Palbociclib], the “Likelihood Score” value is “E*”.

For the compound `Cc1ccc(C(=O)Nc2ccc(CN3CCN(C)CC3)c(C(F)(F)F)c2)cc1C#Cc1cnc2cccnn12` [Ponatinib], the “Likelihood Score” value is reported as “E*”.

As to `CNCc1ccc(-c2[nH]c3cc(F)cc4c3c2CCNC4=O)cc1` [Rucaparib], the “Likelihood Score” value is “D*”. On to `N#CC[C@H](C1CCCC1)n1cc(-c2ncnc3[nH]ccc23)cn1` [Ruxolitinib], for which the “Likelihood Score” value is on record as “E*”.

`Cc1c(C(=O)Nc2ccc(N3C[C@@H](C)O[C@@H](C)C3)nc2)cccc1-c1ccc(OC(F)(F)F)cc1` [Sonidegib]: the “Likelihood Score” value is recorded as “E*”. For `Cn1ncnc1[C@H]1c2n[nH]c(=O)c3cc(F)cc(c23)N[C@@H]1c1ccc(F)cc1` [Talazoparib], the “Likelihood Score” value is listed as “E*”.

In the case of `COc1cc2c(Nc3ccc(Br)cc3F)ncnc2cc1OCC1CCN(C)CC1` [Vandetanib], the “Likelihood Score” value was “E*”. Consider `CCCS(=O)(=O)Nc1ccc(F)c(C(=O)c2c[nH]c3ncc(-c4ccc(Cl)cc4)cc23)c1F` [Vemurafenib], for which the “Likelihood Score” value is on record as “E*”.
